Each compound was assayed against T1, Human STAT6 (truncated, aa122-658, with N-terminal His-tag) (Homo sapiens, UniProt P42226) (assay: Surface plasmon resonance (SPR) assay, binding to human STAT6). Details: Biacore 8K, 25° C, immobilized human STAT6 on CM5 chip, multi-cycle kinetics; geometric mean.
T1 construct: Human STAT6 (truncated, aa122-658, with N-terminal His-tag, expressed in insect cells); His-tag (N); made in house; host or cells: insect cells
T1 sequence (P42226 122-658): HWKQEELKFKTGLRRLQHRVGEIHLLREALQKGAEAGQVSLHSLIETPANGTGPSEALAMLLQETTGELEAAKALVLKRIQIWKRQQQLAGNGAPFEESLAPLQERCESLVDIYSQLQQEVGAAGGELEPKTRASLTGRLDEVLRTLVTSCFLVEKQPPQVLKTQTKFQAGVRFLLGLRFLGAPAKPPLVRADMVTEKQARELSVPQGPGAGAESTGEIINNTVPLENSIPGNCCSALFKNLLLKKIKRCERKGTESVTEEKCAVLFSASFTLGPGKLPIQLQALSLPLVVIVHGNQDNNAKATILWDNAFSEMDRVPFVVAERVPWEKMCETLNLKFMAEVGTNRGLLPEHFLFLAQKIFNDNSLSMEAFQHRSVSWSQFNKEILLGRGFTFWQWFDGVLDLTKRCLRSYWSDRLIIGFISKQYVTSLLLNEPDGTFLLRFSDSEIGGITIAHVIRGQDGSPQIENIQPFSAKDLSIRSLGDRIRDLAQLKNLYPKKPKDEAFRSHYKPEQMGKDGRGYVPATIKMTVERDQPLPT
Experimental: Surface Plasmon Resonance Assay
Biacore instruments from the 8K-series (Cytiva) were used, and measurements were performed at 25° C. Human STAT6 (truncated, aa122-658, with N-terminal His-tag, expressed in insect cells) was immobilized in the active flow cells on a CM5 chip using amine-coupling (default settings) at 10 μg/ml in 10 mM acetate buffer pH 5.5, at a contact time of 120-420 sec. and a flow rate of 10 μl/min. Reference flow cells were deactivated using blank immobilization. PBS-P+(Cytiva) supplemented with 2% DMSO was used as running buffer, and solvent correction was applied. Compounds were tested by multi-cycle kinetics injections using a contact time of 60 sec., dissociation time of up to 300 sec., and a flow rate of 30 μl/min.
Solvent-corrected, reference-subtracted and blank-corrected data was processed and binding isotherms were fitted according to a single report point from each sensorgram (Standard: Late binding (5 sec. before injection end); alternative: Earlier report point according to binding profile). Data fitting was done both with unfixed Rmax and with Rmax fixed to the theoretical value* assuming 1:1 binding to allow processing of data from both weak and strong binders as well as to evaluate binding stoichiometry.
Positive controls were run at the beginning, during, and at the end of the screen to evaluate surface activity.
*Equation for calculation of the theoretical Rmax(Theoretical Rmax=(MW Analyte/MW Ligand)×immobilization level).
In the case of `CN(C)C(=O)c1ccc(C2CCN(Cc3cc4c(-n5ccc(NC(C)(C)C)cc5=O)ccnc4n3C)CC2)cc1` [Example 1d9, 4-[1-[[4-[4-(tert-Butylamino)-2-oxo-1-pyridyl]-1-methyl-pyrrolo[2,3-b]pyridin-2-yl]methyl]-4-piperidyl]-N,N-dimethyl-benzamide], the Kd is reported as 4970 nM.
For `CNc1ccn(-c2ccnc3c2cc(CN2CCC(c4ncc(C(=O)N(C)C)cc4C)CC2)n3C)c(=O)c1` [Example 1m15, N,N,5-Trimethyl-6-(1-((1-methyl-4-(4-(methylamino)-2-oxopyridin-1 (2H)-yl)-1H-pyrrolo[2,3-b]pyridin-2-yl)methyl)piperidin-4-yl)nicotinamide], the Kd was 572 nM.
With `CNc1ccn(-c2ccnc3c2cc(CN2CCC(c4ccc(C(=O)N(C)C)cc4)C(F)(F)C2)n3C)c(=O)c1` (single isomer, unassigned) [Example 1f2] the Kd was 81.3 nM.
`CNc1ccn(-c2ccnc3c2cc(CN2CCN(c4ccc(C(=O)N(C)C)cc4)CC2)n3C)c(=O)c1` [Example 1m3, N,N-Dimethyl-4-(4-((1-methyl-4-(4-(methylamino)-2-oxopyridin-1 (2H)-yl)-1H-pyrrolo[2,3-b]pyridin-2-yl)methyl)piperazin-1-yl)benzamide] gave a Kd of 244 nM.
`CN(C)C(=O)c1ccc(C2CCN(Cc3cc4c(-n5c(F)c(Cl)c(N)c(Cl)c5=O)ccnc4n3C)CC2)cc1` [Example 1d17, 4-[1-[[4-(4-Amino-3,5-dichloro-2-fluoro-6-oxo-1-pyridyl)-1-methyl-pyrrolo[2,3-b]pyridin-2-yl]methyl]-4-piperidyl]-N,N-methyl-benzamide] was tested, and the Kd was 6620 nM.
With `CNc1ccn(-c2ccnc3c2cc(CN2CCN(c4ccc(C(=O)N(C)C)cc4)C[C@@H]2C)n3C)c(=O)c1` [Example 1m1, (S)—N,N-dimethyl-4-(3-methyl-4-((1-methyl-4-(4-(methylamino)-2-oxopyridin-1 (2H)-yl)-1H-pyrrolo[2,3-b]pyridin-2-yl)methyl)piperazin-1-yl)benzamide] the Kd was 58.6 nM.
`CCCN(CCC)C(=O)c1ccc(C2CCN(Cc3cc4c(-n5ccc(NC)cc5=O)ccnc4n3C)CC2)cc1` [Example 1d11, N,N-Dipropyl-4-[1-[[1-methyl-4-[4-(methylamino)-2-oxo-1-pyridyl]pyrrolo[2,3-b]pyridin-2-yl]methyl]-4-piperidyl]benzamide] was tested, and the Kd was 38.4 nM.
`[2H]C([2H])([2H])N(C(=O)c1ccc(C2CCN(Cc3cc4c(-n5ccc(NC)cc5=O)ccnc4n3C)CC2)c(C)c1)C([2H])([2H])[2H]` [Example 1d26, 3-Methyl-4-[1-[[1-methyl-4-[4-(methylamino)-2-oxo-1-pyridyl]pyrrolo[2,3-b]pyridin-2-yl]methyl]-4-piperidyl]-N,N-bis(trideuteriomethyl)benzamide] gave a Kd of 69.7 nM.
Work on `[2H]C([2H])([2H])N(C(=O)c1ccc(N2CCN(Cc3cc4c(-n5ccc(NC)cc5=O)ccnc4n3C)CC2)nc1)C([2H])([2H])[2H]` [Example 1m8, N,N-Bis(methyl-d3)-6-(4-((1-methyl-4-(4-(methylamino)-2-oxopyridin-1 (2H)-yl)-1H-pyrrolo[2,3-b]pyridin-2-yl)methyl)piperazin-1-yl)nicotinamide] yielded a Kd of 640 nM.
Compound `CCOC(=O)Nc1ccn(-c2ccnc3c2cc(CN2CCC(c4ccc(C(=O)N(C)C)cc4)CC2)n3C)c(=O)c1` [Example 1d5, Ethyl N-[1-[2-[[4-[4-(dimethylcarbamoyl)phenyl]-1-piperidyl]methyl]-1-methyl-pyrrolo[2,3-b]pyridin-4-yl]-2-oxo-4-pyridyl]carbamate] has a Kd of 178 nM.
In the case of `CNc1ccn(-c2ccnc3c2cc(CN2CCC(c4ccc(C(=O)N(C)C)cc4C(F)(F)F)CC2)n3C)c(=O)c1` [Example 1d38, N,N-Dimethyl-4-[1-[[1-methyl-4-[4-(methylamino)-2-oxo-1-pyridyl]pyrrolo[2,3-b]pyridin-2-yl]methyl]-4-piperidyl]-3-(trifluoromethyl)benzamide], the Kd is reported as 570 nM.
With `CN(C)C(=O)c1ccc(C2CCN(Cc3cc4c(-n5ccc(N)c(C6CC6)c5=O)ccnc4n3C)CC2)cc1` [Example 1d28, 4-[1-[[4-(4-Amino-3-cyclo-propyl-2-oxo-1-pyridyl)-1-methyl-pyrrolo[2,3-b]pyridin-2-yl]methyl]-4-piperidyl]-N,N-dimethyl-benzamide] the Kd was 76.4 nM.
`CCN(CC)C(=O)c1ccc(C2CCN(Cc3cc4c(-n5ccc(NC)cc5=O)ccnc4n3C)CC2)cc1` [Example 1d10, N,N-Diethyl-4-[1-[[1-methyl-4-[4-(methylamino)-2-oxo-1-pyridyl]pyrrolo[2,3-b]pyridin-2-yl]methyl]-4-piperidyl]benzamide] showed a Kd of 22.8 nM.
With `Cc1cn(-c2ccnc3c2cc(CN2CCC(c4ccc(C(=O)N(C)C)cc4)CC2)n3C)c(=O)nc1N` [Example 1ac3, 4-(1-((4-(4-Amino-5-methyl-2-oxopyrimidin-1 (2H)-yl)-1-methyl-1H-pyrrolo[2,3-b]pyridin-2-yl)methyl)piperidin-4-yl)-N,N-dimethylbenzamide] the Kd was 91.8 nM.
With `CNc1ccn(-c2ccnc3c2cc(CN2CCC(c4ccc(C(=O)N(C)C)cn4)CC2)n3C)c(=O)c1` [Example 1m11, N,N-Dimethyl-6-(1-((1-methyl-4-(4-(methylamino)-2-oxopyridin-1 (2H)-yl)-1H-pyrrolo[2,3-b]pyridin-2-yl)methyl)piperidin-4-yl)nicotinamide] the Kd was 113 nM.

The compounds below were run on Eotaxin-3 (CCL26) release in human whole blood stimulated with IL-4 (assay: Human whole blood eotaxin-3 assay (IL-4 stimulated eotaxin-3 release)). Details: Homo sapiens, 48 h, human whole blood stimulated with recombinant human IL-4, 48 h; given for test compounds with <80% Emax; geometric mean.
Type: cell-based
In short: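 Eotaxin-3 (CCL26) release was quantified by MSD immunoassay in supernatants of human heparinised whole blood after 48 h at 37° C with IL-4 ([…] final). Compounds, in 4-fold dilutions at 0.5% DMSO, were added 2 h before stimulation.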
`CNc1ccn(-c2ccnc3c2cc(CN2CC[C@@H](c4ccc(C(=O)N(C)C)cc4)C[C@@H]2C)n3C)c(=O)c1` (single isomer, unassigned) [Example 1d40] showed an Emax of under 20%.

Same assay, conditions: Homo sapiens, 48 h, human whole blood stimulated with recombinant human IL-4, 48 h; inhibition of eotaxin-3 release; given for test compounds with >80% Emax; geometric mean
Compound `[2H]C([2H])([2H])N(C(=O)c1cc(F)c(C2CCN(Cc3cc4c(-n5ccc(NC)cc5=O)ccnc4n3C)CC2)c(F)c1)C([2H])([2H])[2H]` [Example 1m102, 3,5-difluoro-N,N-bis(methyl-d3)-4-(1-((1-methyl-4-(4-(methylamino)-2-oxopyridin-1 (2H)-yl)-1H-pyrrolo[2,3-b]pyridin-2-yl)methyl)piperidin-4-yl)benzamide] has an EC50 of 23.4 nM.
With `[2H]C([2H])([2H])N(C(=O)c1ccc(C2CCN([C@@H](C)c3cc4c(-n5ccc6[nH]ncc6c5=O)ccnc4n3C)CC2)cc1)C([2H])([2H])[2H]` [Example 1m89, (S)—N,N-bis(methyl-d3)-4-(1-(1-(1-methyl-4-(4-oxo-1,4-dihydro-5H-pyrazolo[4,3-c]pyridin-5-yl)-1H-pyrrolo[2,3-b]pyridin-2-yl)ethyl)piperidin-4-yl)benzamide] the EC50 was 5.87 nM.
`C[C@@H](c1cc2c(-n3ccc4c(c3=O)CCN4)ccnc2n1C)N1CC=C(c2c(F)cc(C(=O)N(C)C)cc2F)CC1` [Example 1m122, (S)-3,5-difluoro-N,N-dimethyl-4-(1-(1-(1-methyl-4-(4-oxo-1,2,3,4-tetrahydro-5H-pyrrolo[3,2-c]pyridin-5-yl)-1H-pyrrolo[2,3-b]pyridin-2-yl)ethyl)-1,2,3,6-tetrahydropyridin-4-yl)benzamide] showed an EC50 of 11.5 nM.
With `Cc1cc(C(=O)N(C)C)ccc1C1=CCN(Cc2cc3c(-n4ncc(N)cc4=O)ccnc3n2C)CC1` [Example 1ab5, 4-(1-((4-(4-Amino-6-oxopyridazin-1 (6H)-yl)-1-methyl-1H-pyrrolo[2,3-b]pyridin-2-yl)methyl)-1,2,3,6-tetrahydropyridin-4-yl)-N,N,3-trimethylbenzamide] the EC50 was 1530 nM.
`CNc1ccn(-c2ccnc3c2cc(CN2CCC(c4ccc(C(=O)N(C)C)cc4)C[C@@H]2C)n3C)c(=O)c1` (single isomer, unassigned) [Example 1d43] gave an EC50 of 21.9 nM.

Same assay, conditions: human whole blood stimulated with recombinant human IL-4, 48 h; inhibition of eotaxin-3 release; given for test compounds with >80% Emax; geometric mean
Work on `CNc1ccn(-c2ccnc3c2cc([C@H](C)N2CC[C@@H](c4c(C)cc(C(=O)N(C)C)cc4F)C(F)(F)C2)n3C)c(=O)c1` (stereo in doubt) [Example 1m142, 4-((S)-3,3-difluoro-1-((S)-1-(1-methyl-4-(4-(methylamino)-2-oxopyridin-1 (2H)-yl)-1H-pyrrolo[2,3-b]pyridin-2-yl)ethyl)piperidin-4-yl)-3-fluoro-N,N,5-trimethylbenzamide] yielded an EC50 of 13.6 nM.
